# Results as given in US20040192624A1, “Method for treating a disease, disorder or adverse effect caused by an elevated serum concentration of an UGT1A1 substrate” (priority 2003, published 2004).
# Experiments:
# [1] = Ethinylestradiol pharmacokinetics alone and with ritonavir in healthy female volunteers; assay type: in vivo, human; details: for t1/2: ethinylestradiol terminal phase, reported as harmonic mean
# Method: This was an open-label, single-center study in healthy female volunteers who had not received an oral contraceptive for a minimum of six months prior to study start. Subjects received the first dose of oral contraceptive containing 50 μg of ethinyl estradiol on Day 1. […] On Day 15, 300 mg q12h was administered, 400 mg q12h was given on Day 16, and 500 mg q12h was administered thereafter. […] Blood samples for ethinylestradiol concentrations were collected for 48 h after each of the oral contraceptive doses.
# Ethinylestradiol was supplied as Demulen@ 1/50-21 tablets (G.D. Searle & Co.) containing 50 μg of ethinylestradiol and 1 mg of ethynodiol diacetate and was administered at 8:00 a.m. on Day 1 and Day 29 with approximately 240 mL of water and within 15 minutes of a meal or snack.
# Subjects were confined for 64 hours from Day -1 (day prior to the initial dose) through the first 48 hour blood collection (morning of Day 3) and for 64 hours from Day 28 through the second 48 hour blood collection (morning of Day 31). In addition, subjects came to the clinical testing unit as outpatients for meals, dosing and other study activities twice daily for a total of 14 consecutive days, starting on Day 15. Strenuous activity during confinement was not permitted. During confinement, subjects abstained from all food and beverages except for the scheduled meals and snacks provided in the study. Water was available ad libitum. All meals were standardized with regard to content during confinement. Breakfast, lunch, and dinner were served at approximately 7:30 a.m., 1:00 p.m. and 7:30 p.m. and snacks were provided at approximately 10:00 p.m., except on Days-1 and 28 when the snack was served at 9:45 p.m. An 8 hour fast was required prior to all blood collections for clinical laboratory analyses. The sequence of starting breakfast and dinner on each dosing day during confinement was maintained to the minute such that the time intervals relative to dosing were the same among all subjects.
# Blood samples (7 mL) were collected for serum ethinyl estradiol concentrations at the following times relative to the dose on Day 1 and Day 29: prior to (0 h) and at 0.5, 1, 2, 3, 4, 6, 8, 10, 12, 18, 24, 30, 36, and 48 h post-dose. […] All plasma and serum samples were packed with dry ice and shipped to the analytical sites.
# Analysis of serum samples for determination of ethinyl estradiol was performed at Pharmaco LSR, Richmond, Va. Ethinylestradiol serum concentrations were determined using a gas chromatography/mass spectrometry (GC/MS) method. 17α-ethinylestradiol and its corresponding isotopically labeled internal standard were isolated from human serum by buffering the serum to pH 8.6 and then extracting with an ethyl ether/methylene chloride mixture. The organic layer was exchanged into aqueous base, washed with hexane and then acidified and extracted with methylene chloride. The extract was dried with sodium carbonate, evaporated and derivatized. The derivatized extract was stored at −20° C. until analysis. Analysis was by capillary GC/MS using negative chemical ionization with selected ion monitoring. This method has been validated over 17α-ethinylestradiol concentrations ranging from 2.00 to 256 pg/mL for a 1.0 mL serum volume, with a minimum quantitation limit of 2.00 pg/mL.
# Ethinylestradiol pharmacokinetic parameters were estimated following two single doses, on Day 1 and Day 29, using noncompartmental methods. The pharmacokinetic parameters were calculated using the intended sampling times; all samples were collected within 10% of intended sampling times. Maximal plasma concentration (Cmax,) and time to reach Cmax (Tmax) were obtained directly from individual concentration vs. time profiles. […]
# [2] = system: bilirubin conjugation in human microsomes; details: in vitro system of human microsomes; cited from earlier work
# UGT1A1 isoform = biological target: T1, UGT1A1 isoform (Homo sapiens, UniProt P22309); details: human cells transfected with the UGT1A1 isoform; cited from earlier work
# T1 sequence (P22309 26-533): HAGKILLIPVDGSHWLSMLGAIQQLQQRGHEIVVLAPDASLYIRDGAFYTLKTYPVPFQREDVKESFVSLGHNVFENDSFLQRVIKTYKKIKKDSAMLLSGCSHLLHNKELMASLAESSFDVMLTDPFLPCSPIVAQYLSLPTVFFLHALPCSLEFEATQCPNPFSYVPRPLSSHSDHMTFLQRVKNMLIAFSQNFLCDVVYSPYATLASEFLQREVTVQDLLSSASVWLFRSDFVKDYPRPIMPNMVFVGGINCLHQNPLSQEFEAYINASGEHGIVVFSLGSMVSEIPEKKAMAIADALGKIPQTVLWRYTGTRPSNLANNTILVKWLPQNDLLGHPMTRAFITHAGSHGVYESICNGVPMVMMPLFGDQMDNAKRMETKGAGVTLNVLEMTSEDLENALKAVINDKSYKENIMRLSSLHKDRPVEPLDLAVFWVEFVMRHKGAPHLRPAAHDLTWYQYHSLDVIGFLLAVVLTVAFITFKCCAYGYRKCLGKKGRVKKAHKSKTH
# [3] = system: bilirubin-conjugating activity; details: indinavir treatment; cited from earlier work
# [4] = system: UDP-glucuronosyltransferase 1 family, member 1; test: Rat liver microarray (Affymetrix Rat U34), induction of probe sequences by ritonavir; assay type: in vivo, Sprague-Dawley rats; details: 3-Day Studies
# [5] = system: 3-methylcholanthrene-inducible UDP-glucuronosyltransferase; test: as above; assay type: in vivo, Sprague-Dawley rats; details: 3-Day Studies, probe sequence 4 of 5, rat liver
# [6] = system: UDP-glucuronosyltransferase 1A (UGT1A); test: Rat liver microarray, all 5 UGT1A probe sets; assay type: in vivo, Sprague-Dawley rats; details: rats, dose levels of 100 mg/kg and higher, after 1 and 3 days of treatment
# [7] = system: UDP glucuronosyltransferase, exon 1.; test: Rat liver microarray (Affymetrix Rat U34), induction of probe sequences by ritonavir; details: 3-Day Studies, probe sequence 5 of 5, rat liver
# UGT1A1 = test: Hepatic 17α-ethinylestradiol glucuronidation activity in liver microsomes of treated rats; details: both male and female rats
# [8] = female, human, serum, po, 50 μg
compound,measurement,setting,value
"C#C[C@]1(O)CC[C@H]2[C@@H]3CCc4cc(O)ccc4[C@H]3CC[C@@]21C [Ethinylestradiol, 17α-ethinylestradiol]",t1/2,"[1]; alone Day 1, with ritonavir 500 mg q12h Day 29",17.0 h
same,t1/2,"[1]; alone Day 1, with ritonavir 500 mg q12h Day 29, listed as ethinyl estradiol",17.0 h
same,half-life,"[1]; female, human, serum, oral, 500 mg",17 h
same,AUC(0-inf),[1]; [8],1.67 ± 0.377 ng·h/mL
same,Cmax,[1]; [8],0.104 ± 0.024 ng/mL
same,Tmax,"[1]; female, human, serum, po, 50 μg, serum ethinylestradiol after single oral contraceptive dose (50 μg), Mean ± SD, n = 23, alone Day 1, with ritonavir 500 mg q12h Day 29",~4 h
COC(=O)N[C@H](C(=O)N[C@@H](Cc1ccccc1)[C@@H](O)CN(Cc1ccc(-c2ccccn2)cc1)NC(=O)[C@@H](NC(=O)OC)C(C)(C)C)C(C)(C)C [atazanavir],inhibition of bilirubin conjugation,[2],micromolar range
same,inhibition of bilirubin conjugation,UGT1A1 isoform,micromolar range
CC(C)(C)NC(=O)[C@@H]1CN(Cc2cccnc2)CCN1C[C@@H](O)C[C@@H](Cc1ccccc1)C(=O)N[C@H]1c2ccccc2C[C@H]1O [indinavir],cause of elevations in serum-unconjugated bilirubin,[3],direct inhibition of bilirubin-conjugating activity
CC(C)c1nc(CN(C)C(=O)N[C@H](C(=O)N[C@@H](Cc2ccccc2)C[C@H](O)[C@H](Cc2ccccc2)NC(=O)OCc2cncs2)C(C)C)cs1 [ritonavir],"Fold change, UDP-glucuronosyltransferase 1 family, member 1","[4]; 75 mg/kg, probe sequence 1 of 5, rat liver",1.56
same,"Fold change, UDP-glucuronosyltransferase 1 family, member 1","[4]; 75 mg/kg, probe sequence 2 of 5, rat liver",1.38
same,"Fold change, UDP-glucuronosyltransferase 1 family, member 1","[4]; 75 mg/kg, probe sequence 3 of 5, rat liver",1.57
same,"Fold change, UDP-glucuronosyltransferase 1 family, member 1","[4]; 100 mg/kg, probe sequence 1 of 5, rat liver",1.67
same,"Fold change, UDP-glucuronosyltransferase 1 family, member 1","[4]; 100 mg/kg, probe sequence 2 of 5, rat liver",1.46
same,"Fold change, UDP-glucuronosyltransferase 1 family, member 1","[4]; 100 mg/kg, probe sequence 3 of 5, rat liver",1.61
same,"Fold change, UDP-glucuronosyltransferase 1 family, member 1","[4]; 125 mg/kg, probe sequence 1 of 5, rat liver",1.54
same,"Fold change, UDP-glucuronosyltransferase 1 family, member 1","[4]; 125 mg/kg, probe sequence 2 of 5, rat liver",1.42
same,"Fold change, UDP-glucuronosyltransferase 1 family, member 1","[4]; 125 mg/kg, probe sequence 3 of 5, rat liver",1.65
same,"Fold change, 3-methylcholanthrene-inducible UDP-glucuronosyltransferase",[5]; 75 mg/kg,1.97
same,"Fold change, 3-methylcholanthrene-inducible UDP-glucuronosyltransferase",[5]; 100 mg/kg,2.26
same,"Fold change, 3-methylcholanthrene-inducible UDP-glucuronosyltransferase",[5]; 125 mg/kg,2.25
same,UGT1A levels for all probe sets,[6],consistent increase
same,"Fold change, UDP glucuronosyltransferase, exon 1.",[7]; 100 mg/kg,3.96
same,"Fold change, UDP glucuronosyltransferase, exon 1.",[7]; 125 mg/kg,5.06
same,"effect on glucuronidation of 17α-ethinylestradiol, a UGT1A1 substrate",UGT1A1,significantly increase
